# Results as given in US8067424B2, “Selective inhibitors for cyclin-dependent kinases” (Emory University, priority 2007, dated 2011).
# Read-outs that look alike come from different tables or passages of the source.
# Experiments:
# [1] = system: MOLT-4
# [2] = system: NCI-H226
# [3] = system: SNB-75
# [4] = system: MCF7
# [5] = system: NCI/ADR-RES; details: for Mean Optical Densities / Percent Growth: NCI/ADR-RES
# [6] = system: MDA-MB-435
# [7] = system: BT-549
# [8] = system: T-47D; details: for Mean Optical Densities / Percent Growth: T-47D
# [9] = system: K-562; experiment: cells; details: Homo sapiens
# [10] = system: MOLT-4; experiment: cells; details: Homo sapiens
# [11] = system: NCI-H226; experiment: cells; details: Homo sapiens
# [12] = system: KM12; experiment: cells; details: Homo sapiens
# [13] = system: SF-539; experiment: cells; details: Homo sapiens
# [14] = system: LOX IMVI; experiment: cells; details: Homo sapiens
# [15] = system: SK-MEL-28; experiment: cells; details: Homo sapiens
# [16] = system: SK-MEL-5; experiment: cells; details: Homo sapiens
# [17] = system: UACC-62; experiment: cells; details: Homo sapiens
# [18] = system: IGROV1; experiment: cells; details: Homo sapiens
# [19] = system: OVCAR-5; experiment: cells; details: Homo sapiens
# [20] = system: CAKI-1; experiment: cells; details: Homo sapiens
# [21] = system: TK-10; experiment: cells; details: Homo sapiens
# [22] = system: MDA-MB-231/ATCC; experiment: cells; details: Homo sapiens
# [23] = system: MDA-MB-435; experiment: cells; details: Homo sapiens
# [24] = MOLT-4, log10 concentration −4.0
# [25] = MOLT-4, log10 concentration −6.0
# [26] = MOLT-4, log10 concentration −7.0
# [27] = MOLT-4, log10 concentration −8.0
# [28] = NCI-H226, log10 concentration −4.0
# [29] = NCI-H226, log10 concentration −5.0
# [30] = NCI-H226, log10 concentration −6.0
# [31] = NCI-H226, log10 concentration −7.0
# [32] = NCI-H226, log10 concentration −8.0
# [33] = SNB-75, log10 concentration −4.0
# [34] = SNB-75, log10 concentration −5.0
# [35] = SNB-75, log10 concentration −6.0
# [36] = SNB-75, log10 concentration −7.0
# [37] = SNB-75, log10 concentration −8.0
# [38] = MDA-MB-435, log10 concentration −4.0
# [39] = MDA-MB-435, log10 concentration −5.0
# [40] = MDA-MB-435, log10 concentration −6.0
# [41] = MDA-MB-435, log10 concentration −7.0
# [42] = MDA-MB-435, log10 concentration −8.0
# [43] = BT-549, log10 concentration −4.0
# [44] = BT-549, log10 concentration −5.0
# [45] = BT-549, log10 concentration −6.0
# [46] = BT-549, log10 concentration −7.0
# [47] = BT-549, log10 concentration −8.0
smiles,measurement,setting,value
"CC(C)c1cnn2c(NCc3ccccc3)cc(N[C@@H](CO)[C@H](O)CO)nc12 [ICEC0318, (3S)-3-(7-(Benzylamino)-3-isopropylpyrazolo[1,5-a]pyrimidin-5-ylamino)butane-1,2,4-triol]",TGI,[1]; MOLT-4 (Leukemia),>1.00E−4
same,Mean Optical Densities,[1]; [24],0.449
same,Percent Growth,[1]; [24],15%
same,Mean Optical Densities,"[1]; MOLT-4, log10 concentration −5.0",0.329
same,Mean Optical Densities,[1]; [25],0.368
same,Percent Growth,[1]; [25],5%
same,Mean Optical Densities,[1]; [26],0.987
same,Percent Growth,[1]; [26],82%
same,Mean Optical Densities,[1]; [27],1.072
same,Percent Growth,[1]; [27],92%
same,Mean Optical Densities,[2]; [28],0.725
same,Percent Growth,[2]; [28],4%
same,Mean Optical Densities,[2]; [29],0.613
same,Percent Growth,[2]; [29],−9%
same,Mean Optical Densities,[2]; [30],0.662
same,Percent Growth,[2]; [30],−1%
same,Mean Optical Densities,[2]; [31],1.920
same,Percent Growth,[2]; [31],89%
same,Mean Optical Densities,[2]; [32],2.076
same,Percent Growth,[2]; [32],101%
same,TGI,[3]; SNB-75 (CNS Cancer),4.82E−7
same,Mean Optical Densities,[3]; [33],0.072
same,Percent Growth,[3]; [33],−83%
same,Mean Optical Densities,[3]; [34],0.162
same,Percent Growth,[3]; [34],−62%
same,Mean Optical Densities,[3]; [35],0.226
same,Percent Growth,[3]; [35],−47%
same,Mean Optical Densities,[3]; [36],0.911
same,Percent Growth,[3]; [36],101%
same,Mean Optical Densities,[3]; [37],0.848
same,Percent Growth,[3]; [37],88%
same,TGI,[4]; MCF7 (Breast Cancer),>1.00E−4
same,Mean Optical Densities,"[4]; MCF7, log10 concentration −4.0",0.229
same,Percent Growth,"[4]; MCF7, log10 concentration −4.0",6%
same,Mean Optical Densities,"[4]; MCF7, log10 concentration −5.0",0.237
same,Percent Growth,"[4]; MCF7, log10 concentration −5.0",7%
same,Mean Optical Densities,"[4]; MCF7, log10 concentration −6.0",0.244
same,Percent Growth,"[4]; MCF7, log10 concentration −6.0",7%
same,Mean Optical Densities,"[4]; MCF7, log10 concentration −7.0",0.805
same,Percent Growth,"[4]; MCF7, log10 concentration −7.0",72%
same,Mean Optical Densities,"[4]; MCF7, log10 concentration −8.0",1.098
same,Percent Growth,"[4]; MCF7, log10 concentration −8.0",107%
same,TGI,[5]; NCI/ADR-RES (Breast Cancer),>1.00E−4
same,Mean Optical Densities,[5]; log10 concentration −4.0,0.531
same,Percent Growth,[5]; log10 concentration −4.0,10%
same,Mean Optical Densities,[5]; log10 concentration −5.0,0.657
same,Percent Growth,[5]; log10 concentration −5.0,22%
same,Mean Optical Densities,[5]; log10 concentration −6.0,1.107
same,Percent Growth,[5]; log10 concentration −6.0,63%
same,Mean Optical Densities,[5]; log10 concentration −7.0,1.638
same,Percent Growth,[5]; log10 concentration −7.0,111%
same,Mean Optical Densities,[5]; log10 concentration −8.0,1.587
same,Percent Growth,[5]; log10 concentration −8.0,107%
same,TGI,[6]; MDA-MB-435 (Breast Cancer),1.15E−5
same,Mean Optical Densities,[6]; [38],0.242
same,Percent Growth,[6]; [38],−48%
same,Mean Optical Densities,[6]; [39],0.511
same,Percent Growth,[6]; [39],3%
same,Mean Optical Densities,[6]; [40],0.659
same,Percent Growth,[6]; [40],13%
same,Mean Optical Densities,[6]; [41],1.781
same,Percent Growth,[6]; [41],86%
same,Mean Optical Densities,[6]; [42],2.132
same,Percent Growth,[6]; [42],109%
same,TGI,[7]; BT-549 (Breast Cancer),8.82E−7
same,Mean Optical Densities,[7]; [43],0.803
same,Percent Growth,[7]; [43],−10%
same,Mean Optical Densities,[7]; [44],0.805
same,Percent Growth,[7]; [44],−9%
same,Mean Optical Densities,[7]; [45],0.843
same,Percent Growth,[7]; [45],−5%
same,Mean Optical Densities,[7]; [46],1.769
same,Percent Growth,[7]; [46],88%
same,Mean Optical Densities,[7]; [47],1.968
same,Percent Growth,[7]; [47],108%
same,TGI,[8]; T-47D (Breast Cancer),2.55E−6
same,Mean Optical Densities,[8]; log10 concentration −4.0,0.479
same,Percent Growth,[8]; log10 concentration −4.0,−12%
same,Mean Optical Densities,[8]; log10 concentration −5.0,0.516
same,Percent Growth,[8]; log10 concentration −5.0,−5%
same,Mean Optical Densities,[8]; log10 concentration −6.0,0.565
same,Percent Growth,[8]; log10 concentration −6.0,3%
same,Mean Optical Densities,[8]; log10 concentration −7.0,1.199
same,Percent Growth,[8]; log10 concentration −7.0,94%
same,Mean Optical Densities,[8]; log10 concentration −8.0,1.266
same,Percent Growth,[8]; log10 concentration −8.0,103%
same,GI50,[9]; K562,288 nM
same,CC50,"[9]; K562, read-out: LC50",> 100000 nM
same,GI50,[10]; MOLT-4,259 nM
same,CC50,"[10]; MOLT-4, read-out: LC50",> 100000 nM
same,GI50,[11]; NCI-H226,272 nM
same,CC50,"[11]; NCI-H226, read-out: LC50",> 100000 nM
same,GI50,[12]; KM12,275 nM
same,CC50,"[12]; KM12, read-out: LC50",> 100000 nM
same,GI50,[13]; SF-539,199 nM
same,CC50,"[13]; SF-539, read-out: LC50",6850 nM
same,GI50,[14],171 nM
same,CC50,[14]; read-out: LC50,> 100000 nM
same,GI50,[15]; SK-MEL-28,245 nM
same,CC50,"[15]; SK-MEL-28, read-out: LC50",37100 nM
same,GI50,[16]; SK-MEL-5,192 nM
same,CC50,"[16]; SK-MEL-5, read-out: LC50",5980 nM
same,GI50,[17]; UACC-62,155 nM
same,CC50,"[17]; UACC-62, read-out: LC50",644 nM
same,GI50,[18]; IGROV-1,210 nM
same,CC50,"[18]; IGROV-1, read-out: LC50",> 100000 nM
same,GI50,[19]; OVCAR-5,305 nM
same,CC50,"[19]; OVCAR-5, read-out: LC50",> 100000 nM
same,GI50,[20]; CAKI-1,249 nM
same,CC50,"[20]; CAKI-1, read-out: LC50",> 100000 nM
same,GI50,[21]; TK-10,377 nM
same,CC50,"[21]; TK-10, read-out: LC50",> 100000 nM
same,GI50,[22]; MDA-MB-231,438 nM
same,CC50,"[22]; MDA-MB-231, read-out: LC50",> 100000 nM
same,GI50,[23]; MDA-MB-435,309 nM
same,CC50,"[23]; MDA-MB-435, read-out: LC50",> 100000 nM
